We go through 21 compounds from ChEMBL document CHEMBL3351573, “Synthesis and cholinesterase inhibition of cativic acid derivatives” (Bioorg Med Chem, 2014).

A value given as a limit tells only on which side of the number the result lay.

Series [1] addresses T1, Acetylcholinesterase (Torpedo californica, UniProt P04058).
Description: Inhibition of Torpedo californica AChE by spectrophotometry based Ellman's method
Another series concerns the target Cholinesterase (Equus caballus, UniProt P81908).
The nature of series [2]: Cytotoxicity against human SH-SY5Y cells assessed as change in cell morphology at 1 to 5 uM after 1 hr to 24 hrs by phase contrast microscopy. In kind it is cell-based.
The nature of series [3]: Selectivity index, ratio of IC50 for horse serum BChE to IC50 for Torpedo californica AChE.
The target in series [4] is Acetylcholinesterase (Homo sapiens) (UniProt P22303). In words: Inhibition of AChE in human SH-SY5Y cells assessed as enzyme activity at 1 uM after 1 hr by Ellman's method. In kind it is cell-based. On the set-up: scale not given: the % may be the effect or the level left.
The nature of series [5]: Cytotoxicity against human SH-SY5Y cells assessed as LDH release at 1 uM after 1 hr (reference value: -0.78 +/- 3.50%). It is filed as cell-based. A general note: LDH leaks from cells whose membrane has failed.
The nature of series [6]: Cytotoxicity against human SH-SY5Y cells assessed as LDH release at 1 uM after 24 hrs (reference value: 0.02 +/- 0.35%). It is filed as cell-based.
For series [7], the target named is Acetylcholinesterase (Homo sapiens) (UniProt P22303). In words: Inhibition of AChE in human SH-SY5Y cells assessed as enzyme activity at 5 uM after 1 hr by Ellman's method. On the set-up: scale not given: the % may be the effect or the level left. It is filed as cell-based.
Series [8] deals with T1, Acetylcholinesterase. In words: Mixed type inhibition of Torpedo californica AChE by Lineweaver-Burk plot. Also noted: species or system Tetronarce californica.
A short description of series [9]: Cytotoxicity against human SH-SY5Y cells assessed as LDH release at 5 uM after 1 hr (reference value: -0.78 +/- 3.50%). In kind it is cell-based.
A short description of series [10]: Cytotoxicity against human SH-SY5Y cells assessed as LDH release at 5 uM after 24 hrs (reference value: 0.02 +/- 0.35%). In kind it is cell-based.

T1 sequence (P04058 whole entry): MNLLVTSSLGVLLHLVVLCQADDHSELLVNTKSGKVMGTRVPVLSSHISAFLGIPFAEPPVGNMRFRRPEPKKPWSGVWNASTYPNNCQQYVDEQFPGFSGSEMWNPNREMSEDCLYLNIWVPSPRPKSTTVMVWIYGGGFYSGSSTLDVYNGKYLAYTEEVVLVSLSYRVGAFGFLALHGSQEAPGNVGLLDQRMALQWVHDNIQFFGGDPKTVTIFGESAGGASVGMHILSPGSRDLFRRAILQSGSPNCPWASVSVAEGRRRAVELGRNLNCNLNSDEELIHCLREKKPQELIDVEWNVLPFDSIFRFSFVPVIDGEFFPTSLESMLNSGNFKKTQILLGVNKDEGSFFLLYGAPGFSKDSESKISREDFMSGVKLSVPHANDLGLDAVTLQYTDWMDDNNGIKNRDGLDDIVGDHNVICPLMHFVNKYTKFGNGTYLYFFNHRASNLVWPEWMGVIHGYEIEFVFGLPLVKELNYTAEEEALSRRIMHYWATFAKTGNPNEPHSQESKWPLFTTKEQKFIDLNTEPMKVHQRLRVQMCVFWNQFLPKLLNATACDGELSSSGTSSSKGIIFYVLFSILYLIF
Cholinesterase, sequence (P81908 whole entry): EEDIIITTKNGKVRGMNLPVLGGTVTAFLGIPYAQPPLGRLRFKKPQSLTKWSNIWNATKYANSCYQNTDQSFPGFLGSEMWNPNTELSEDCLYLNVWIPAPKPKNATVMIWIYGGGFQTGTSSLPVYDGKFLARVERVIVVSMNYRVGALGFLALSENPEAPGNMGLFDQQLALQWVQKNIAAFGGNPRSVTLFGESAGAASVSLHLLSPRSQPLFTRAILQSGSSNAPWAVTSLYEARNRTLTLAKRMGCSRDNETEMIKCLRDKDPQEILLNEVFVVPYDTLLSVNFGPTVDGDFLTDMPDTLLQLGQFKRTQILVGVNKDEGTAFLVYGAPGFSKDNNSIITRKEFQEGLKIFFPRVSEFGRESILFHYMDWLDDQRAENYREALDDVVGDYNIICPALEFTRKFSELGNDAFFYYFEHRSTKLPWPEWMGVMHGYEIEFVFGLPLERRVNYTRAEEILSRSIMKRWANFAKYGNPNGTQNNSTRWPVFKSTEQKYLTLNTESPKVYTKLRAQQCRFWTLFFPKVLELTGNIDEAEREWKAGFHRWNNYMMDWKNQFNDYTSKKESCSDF
Acetylcholinesterase (Homo sapiens), sequence (P22303 whole entry): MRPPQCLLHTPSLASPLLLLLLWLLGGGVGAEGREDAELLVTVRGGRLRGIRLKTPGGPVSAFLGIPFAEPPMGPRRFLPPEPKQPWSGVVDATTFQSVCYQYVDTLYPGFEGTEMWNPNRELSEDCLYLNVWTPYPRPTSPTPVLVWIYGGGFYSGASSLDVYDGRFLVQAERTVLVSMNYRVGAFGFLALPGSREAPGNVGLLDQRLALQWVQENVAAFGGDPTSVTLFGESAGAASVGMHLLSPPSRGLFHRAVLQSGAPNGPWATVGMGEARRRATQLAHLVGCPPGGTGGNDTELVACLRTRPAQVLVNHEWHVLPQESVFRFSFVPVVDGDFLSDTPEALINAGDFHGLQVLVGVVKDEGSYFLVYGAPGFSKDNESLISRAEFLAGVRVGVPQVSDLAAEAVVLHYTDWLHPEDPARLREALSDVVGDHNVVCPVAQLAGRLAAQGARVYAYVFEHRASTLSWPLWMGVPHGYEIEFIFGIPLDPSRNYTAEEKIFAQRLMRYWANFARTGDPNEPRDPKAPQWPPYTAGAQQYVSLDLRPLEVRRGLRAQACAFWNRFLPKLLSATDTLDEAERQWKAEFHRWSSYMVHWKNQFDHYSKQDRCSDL

By IC50 is commonly meant the concentration at which inhibition is half-maximal. As for `C[C@@H](CC[C@H]1C(CO)=CC[C@H]2C(C)(C)CCC[C@]12C)CC(=O)OCCCCN1CCOCC1`, the half-maximal inhibitory concentration (IC50) against Acetylcholinesterase [1] and at Cholinesterase was more than 50 µM throughout.

Usually Ki stands for the dissociation constant of the complex between target and ligand, obtained from inhibition or displacement. In the case of `C[C@@H](CC[C@H]1C(CO)=CC[C@H]2C(C)(C)CCC[C@]12C)CC(=O)OCCCCN1CCCC1`, the Activity entry in series [2] is “Non-toxic”; in series [4] it was 67.3%; in series [5] it was 1.34%; in series [6], -0.02%; in [7] it was 30.4%; in series [9], 2.33%. Besides, the Activity in series [10] is given as 0.11%. Also, the Ratio IC50 in series [3] stood at 3.2. Also, at Acetylcholinesterase [8], affinity was put at a Ki of 4.6 µM. Further, the IC50 worked out at 3.2 µM against Acetylcholinesterase [1] and 10.3 µM against Cholinesterase.

`C[C@@H](CC[C@H]1C(CO)=CC[C@H]2C(C)(C)CCC[C@]12C)CC(=O)OCCCCCCN1CCCC1`: in series [3], the Ratio IC50 was determined as 0.8. The IC50 on Acetylcholinesterase [1] was 13.5 µM; on Cholinesterase it was 10.6 µM.

As for `CCN(CC)CCCCCCOC(=O)C[C@@H](C)CC[C@H]1C(CO)=CC[C@H]2C(C)(C)CCC[C@]12C`, the Ratio IC50 in series [3] was determined as 0.9. The 50% inhibitory concentration (IC50) on Acetylcholinesterase [1] turned out to be 17.8 µM; at Cholinesterase it was 15.2 µM.

Regarding `CCN(CC)CCCCOC(=O)C[C@@H](C)CC[C@H]1C(CO)=CC[C@H]2C(C)(C)CCC[C@]12C`, the Ratio IC50 in [3] came out at 1.8. The 50% inhibitory concentration (IC50) on Acetylcholinesterase [1] was found to be 9.4 µM; against Cholinesterase, 23.6 µM.

For the compound `CCN(CC)CCOC(=O)C[C@@H](C)CC[C@H]1C(CO)=CC[C@H]2C(C)(C)CCC[C@]12C`, the Ratio IC50 in series [3] is less than 0.8. In addition, the half-inhibitory concentration (IC50) on Acetylcholinesterase [1] is more than 50 µM; on Cholinesterase, 39.9 µM.

For `CCN(CC)CCCOC(=O)C[C@@H](C)CC[C@H]1C(CO)=CC[C@H]2C(C)(C)CCC[C@]12C`, in series [3], the Ratio IC50 worked out at 1.5. Further, the results for the IC50 at Acetylcholinesterase [1] and at Cholinesterase were 11.8 µM and 18.1 µM, respectively.

Consider `C[C@@H](CC[C@H]1C(CO)=CC[C@H]2C(C)(C)CCC[C@]12C)CC(=O)OCCCN1CCOCC1`, for which the IC50 against Acetylcholinesterase [1] and on Cholinesterase was more than 50 µM throughout.

As to `C[C@@H](CC[C@H]1C(CO)=CC[C@H]2C(C)(C)CCC[C@]12C)CC(=O)OCCCCCN1CCOCC1`, the IC50 against Acetylcholinesterase [1] and against Cholinesterase was more than 50 µM in each case.

Turning to `C[C@@H](CC[C@H]1C(CO)=CC[C@H]2C(C)(C)CCC[C@]12C)CC(=O)O`, the Ratio IC50 in series [3] came to 8.1. The IC50 against Acetylcholinesterase [1] was 21.1 µM; against Cholinesterase, 171 µM.

In the case of `C[C@@H](CC[C@H]1C(CO)=CC[C@H]2C(C)(C)CCC[C@]12C)CC(=O)OCCN1CCCC1`, the Ratio IC50 in series [3] was less than 0.3. The half-inhibitory concentration (IC50) was more than 50 µM against Acetylcholinesterase [1] and 17 µM on Cholinesterase.

Turning to `C[C@@H](CC[C@H]1C(CO)=CC[C@H]2C(C)(C)CCC[C@]12C)CC(=O)OCCCN1CCCC1`, the Ratio IC50 in [3] was 1.3. The figures for the IC50 on Acetylcholinesterase [1] and at Cholinesterase were 33.8 µM and 43.8 µM, respectively.

For the compound `C[C@@H](CC[C@H]1C(CO)=CC[C@H]2C(C)(C)CCC[C@]12C)CC(=O)OCCCCCN1CCCC1`, in series [3], the Ratio IC50 was determined as 4.1. In addition, the values for the IC50 at Acetylcholinesterase [1] and against Cholinesterase were 5.5 µM and 22.1 µM, respectively.

Consider `C[C@@H](CC[C@H]1C(CO)=CC[C@H]2C(C)(C)CCC[C@]12C)CC(=O)OCCCCCCN1CCOCC1`, for which the IC50 on Acetylcholinesterase [1] and on Cholinesterase was more than 50 µM each time.

As for `C[C@@H](CC[C@H]1C(CO)=CC[C@H]2C(C)(C)CCC[C@]12C)CC(=O)OCCN1CCOCC1`, the IC50 on Acetylcholinesterase [1] and at Cholinesterase was more than 50 µM in each case.

Consider `C[C@@H](CC[C@H]1C(CO)=CC[C@H]2C(C)(C)CCC[C@]12C)CC(=O)OCCCCCN1CCCCC1`, for which, in series [3], the Ratio IC50 is 1.7. Further, the IC50 on Acetylcholinesterase [1] is 14.7 µM; against Cholinesterase, 24.8 µM.

For `C[C@@H](CC[C@H]1C(CO)=CC[C@H]2C(C)(C)CCC[C@]12C)CC(=O)OCCCCN1CCCCC1`, the Ratio IC50 in series [3] was 2.5. The IC50 against Acetylcholinesterase [1] came to 15 µM; against Cholinesterase it was 37.1 µM.

With `C[C@@H](CC[C@H]1C(CO)=CC[C@H]2C(C)(C)CCC[C@]12C)CC(=O)OCCCN1CCCCC1`, in series [3], the Ratio IC50 is 5.6. The IC50 at Acetylcholinesterase [1] was found to be 6.2 µM; against Cholinesterase, 34.7 µM.

On to `C[C@@H](CC[C@H]1C(CO)=CC[C@H]2C(C)(C)CCC[C@]12C)CC(=O)OCCN1CCCCC1`, for which the 50% inhibitory concentration (IC50) against Acetylcholinesterase [1] and against Cholinesterase was more than 50 µM each time.

Take `C[C@@H](CC[C@H]1C(CO)=CC[C@H]2C(C)(C)CCC[C@]12C)CC(=O)OCCCCCCN1CCCCC1`: the Ratio IC50 in series [3] is 0.7. Moreover, the values for the IC50 against Acetylcholinesterase [1] and at Cholinesterase were 14.5 µM and 10.5 µM, respectively.

With `CCN(CC)CCCCCOC(=O)C[C@@H](C)CC[C@H]1C(CO)=CC[C@H]2C(C)(C)CCC[C@]12C`, the Ratio IC50 in series [3] amounted to 2. Moreover, the IC50 stood at 13.8 µM against Acetylcholinesterase [1] and 27.2 µM against Cholinesterase.
